Literature values as cited in publication PMC5429621 (Scientific Reports, 2017).

Columns and labels:
[1] = biological target: P2X7 receptor (P2X7R); details: read-out: ATP EC50, physiological concentrations of calcium and magnesium; cited from earlier work
[2] = tested on: tumour growth; set-up: method as in PMID 22505653; details: cited from earlier work

In the case of Nc1ncnc2c1ncn2[C@@H]1O[C@H](COP(=O)(O)OP(=O)(O)OP(=O)(O)O)[C@@H](O)[C@H]1O [ATP], the EC50 [1] is given as 300 to 1000 µM.
In the case of Cl.Cl.O=C(CC12CC3CC(CC(C3)C1)C2)Nc1cccc2nc(NCCNCCO)ccc12 [AZ10606120, N-[2-[[2-[(2-Hydroxyethyl)amino]ethyl]amino]-5-quinolinyl]-2-tricyclo[3.3.1.13,7]dec-1-ylacetamide dihydrochloride], the “effect of AZ10606120 treatment in animal studies (tumour)” value [2] is given as “reduced tumour growth”.
